Measured values taken from ChEMBL document CHEMBL5661967, “Antitumor activity of HKI-272, an orally active, irreversible inhibitor of the HER-2 tyrosine kinase” (Cancer Res, 2004).
Calls of active or inactive are those of the source. The rule behind the calls is not given here.

What was measured:
[1] = system: BT-474; test: Antitumor activity against human BT-474 cells xenografted in athymic nude mouse assessed as tumor growth inhibition at 5 mg/kg, po administered daily for 20 days via gavage and measured on day 21 relative to control; type: functional; details: BT-474, 504 h, time 21 day, read-out: TGI
[2] = target: RAF proto-oncogene serine/threonine-protein kinase (Homo sapiens, UniProt P04049); test: Inhibition of recombinant c-Raf (unknown origin) using protein as substrate
Chain of RAF proto-oncogene serine/threonine-protein kinase (P04049 whole entry): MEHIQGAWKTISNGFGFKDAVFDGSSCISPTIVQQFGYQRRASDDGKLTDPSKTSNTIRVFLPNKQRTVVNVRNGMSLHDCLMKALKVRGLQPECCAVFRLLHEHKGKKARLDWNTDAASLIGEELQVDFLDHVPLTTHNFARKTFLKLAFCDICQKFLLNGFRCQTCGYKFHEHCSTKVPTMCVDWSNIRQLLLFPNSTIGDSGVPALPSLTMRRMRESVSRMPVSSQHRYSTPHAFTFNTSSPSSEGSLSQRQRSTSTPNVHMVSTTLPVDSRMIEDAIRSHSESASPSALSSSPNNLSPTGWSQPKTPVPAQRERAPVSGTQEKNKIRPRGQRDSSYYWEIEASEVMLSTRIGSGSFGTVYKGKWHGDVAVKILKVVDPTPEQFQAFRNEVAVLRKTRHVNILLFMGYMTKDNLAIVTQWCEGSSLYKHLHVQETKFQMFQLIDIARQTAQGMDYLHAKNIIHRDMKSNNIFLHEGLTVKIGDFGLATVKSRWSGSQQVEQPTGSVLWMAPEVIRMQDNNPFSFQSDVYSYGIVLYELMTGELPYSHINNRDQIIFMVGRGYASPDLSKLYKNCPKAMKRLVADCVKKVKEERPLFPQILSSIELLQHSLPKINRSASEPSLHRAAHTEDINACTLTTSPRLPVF

[3] = target: Cyclin-dependent kinase 4/cyclin D1 (Homo sapiens, UniProt P11802); test: Inhibition of recombinant CDK4/cyclin D1 (unknown origin) using protein as substrate; type: protein-complex assay
Chain of Cyclin-dependent kinase 4/cyclin D1 (P11802 whole entry): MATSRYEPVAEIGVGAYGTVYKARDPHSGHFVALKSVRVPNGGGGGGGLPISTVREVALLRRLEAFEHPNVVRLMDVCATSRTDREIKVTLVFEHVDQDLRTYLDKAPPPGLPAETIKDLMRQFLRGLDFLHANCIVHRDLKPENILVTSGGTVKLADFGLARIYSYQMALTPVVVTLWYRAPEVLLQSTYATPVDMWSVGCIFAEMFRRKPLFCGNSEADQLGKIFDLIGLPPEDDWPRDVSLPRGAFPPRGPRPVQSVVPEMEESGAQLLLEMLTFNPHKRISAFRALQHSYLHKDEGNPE
Chain of Cyclin-dependent kinase 4/cyclin D1 (P24385 whole entry, further chain): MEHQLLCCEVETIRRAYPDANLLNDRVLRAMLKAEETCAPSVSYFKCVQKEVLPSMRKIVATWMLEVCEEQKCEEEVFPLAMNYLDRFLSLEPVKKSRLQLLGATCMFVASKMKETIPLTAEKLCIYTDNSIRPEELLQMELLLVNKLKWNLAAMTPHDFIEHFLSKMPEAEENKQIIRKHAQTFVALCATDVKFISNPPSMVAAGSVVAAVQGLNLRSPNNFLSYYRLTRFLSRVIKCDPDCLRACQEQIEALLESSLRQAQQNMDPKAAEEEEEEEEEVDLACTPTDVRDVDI

[4] = Toxicity in human SK-OV-3 cells xenografted athymic nude mouse assessed as body weight loss at 10 to 60 mg/kg, po administered daily via gavage for 20 days; type: organism-based; details: in vivo, 480 h, dose 10-60 mg/kg, time 20 day
[5] = target: Mitogen-activated protein kinase kinase kinase 8 (Homo sapiens, UniProt P41279); test: Inhibition of recombinant Tpl-2 (unknown origin) using peptide as substrate
Chain of Mitogen-activated protein kinase kinase kinase 8 (P41279 whole entry): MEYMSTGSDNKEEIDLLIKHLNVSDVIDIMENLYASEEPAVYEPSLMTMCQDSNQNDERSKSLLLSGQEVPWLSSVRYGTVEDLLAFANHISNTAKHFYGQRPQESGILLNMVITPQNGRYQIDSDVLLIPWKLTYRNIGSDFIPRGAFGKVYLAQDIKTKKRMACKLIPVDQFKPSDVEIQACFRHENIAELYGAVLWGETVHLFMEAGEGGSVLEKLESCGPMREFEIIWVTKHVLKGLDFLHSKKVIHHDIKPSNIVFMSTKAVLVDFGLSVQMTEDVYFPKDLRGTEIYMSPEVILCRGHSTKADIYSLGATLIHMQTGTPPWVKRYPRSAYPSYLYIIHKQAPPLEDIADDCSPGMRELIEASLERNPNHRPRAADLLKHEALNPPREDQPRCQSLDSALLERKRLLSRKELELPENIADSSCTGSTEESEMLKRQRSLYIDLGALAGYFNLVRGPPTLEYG

[6] = system: BT-474; test: Antitumor activity against human BT-474 cells xenografted in athymic nude mouse assessed as tumor growth inhibition at 40 mg/kg, po administered daily for 20 days via gavage and measured on day 28 relative to control; type: functional; details: BT-474, 672 h, time 28 day, read-out: TGI
[7] = In vivo inhibition of HER2 autophosphorylation in human BT-474 cells xenografted athymic nude mouse at 40 mg/kg, po administered as single dose via gavage measured after 1 hr by immunoblot analysis relative to control; type: functional
[8] = system: BT-474; test: Cell cycle arrest in human BT-474 cells assessed as accumulation of cells at S phase at 2 nM measured after 12 to 16 hrs by BrdUrd uptake assay (reference value: 26%); type: functional; details: time 12-16 hrs
[9] = system: BT-474; test: Cell cycle arrest in human BT-474 cells assessed as up regulation of p27 expression at 1 to 10 nM incubated for 12 to 16 hrs by Western blot analysis; type: functional, cell-based; details: dose 1-10 nM, time 12-16 hrs
[10] = system: SK-OV-3; test: Antitumor activity against human SK-OV-3 cells xenografted in po dosed athymic nude mouse assessed as tumor growth inhibition administered daily for 20 days via gavage and measured on day 21; type: functional, organism-based; details: dose 10-60 mg/kg, time 21.0 day
[11] = system: BT-474; test: Cell cycle arrest in human BT-474 cells assessed as down regulation of cyclin D1 expression incubated for 12 to 16 hrs by Western blot analysis; type: functional, cell-based
[12] = target: Cyclin-dependent kinase 2/cyclin E1 (Homo sapiens, UniProt P24941); test: Inhibition of recombinant CDK2/cyclin E (unknown origin) using protein as substrate; type: protein-complex assay
[13] = Cytotoxicity against mouse 3T3 cells assessed as inhibition of cell proliferation measured after 2 days by sulforhodamine B assay; type: toxicity, cell-based; details: NIH3T3 (3T3) cells
[14] = species: Homo sapiens; test: Selectivity ratio of IC50 for recombinant KDR (unknown origin) to IC50 for recombinant N-terminal His6-tagged HER2 cytoplasmic domain (676 to 1255 residues)(unknown origin) expressed in baculovirus infected Sf9 insect cells
[15] = target: T1, Receptor tyrosine-protein kinase erbB-2 (Homo sapiens, UniProt P04626); test: Irreversible inhibition of HER2 autophosphorylation in human BT-474 cells at 1 uM incubated for 3 hrs followed by compound washout and further incubated for 5 hrs by Western blot analysis relative to control; type: cell-based
T1 sequence (P04626 whole entry): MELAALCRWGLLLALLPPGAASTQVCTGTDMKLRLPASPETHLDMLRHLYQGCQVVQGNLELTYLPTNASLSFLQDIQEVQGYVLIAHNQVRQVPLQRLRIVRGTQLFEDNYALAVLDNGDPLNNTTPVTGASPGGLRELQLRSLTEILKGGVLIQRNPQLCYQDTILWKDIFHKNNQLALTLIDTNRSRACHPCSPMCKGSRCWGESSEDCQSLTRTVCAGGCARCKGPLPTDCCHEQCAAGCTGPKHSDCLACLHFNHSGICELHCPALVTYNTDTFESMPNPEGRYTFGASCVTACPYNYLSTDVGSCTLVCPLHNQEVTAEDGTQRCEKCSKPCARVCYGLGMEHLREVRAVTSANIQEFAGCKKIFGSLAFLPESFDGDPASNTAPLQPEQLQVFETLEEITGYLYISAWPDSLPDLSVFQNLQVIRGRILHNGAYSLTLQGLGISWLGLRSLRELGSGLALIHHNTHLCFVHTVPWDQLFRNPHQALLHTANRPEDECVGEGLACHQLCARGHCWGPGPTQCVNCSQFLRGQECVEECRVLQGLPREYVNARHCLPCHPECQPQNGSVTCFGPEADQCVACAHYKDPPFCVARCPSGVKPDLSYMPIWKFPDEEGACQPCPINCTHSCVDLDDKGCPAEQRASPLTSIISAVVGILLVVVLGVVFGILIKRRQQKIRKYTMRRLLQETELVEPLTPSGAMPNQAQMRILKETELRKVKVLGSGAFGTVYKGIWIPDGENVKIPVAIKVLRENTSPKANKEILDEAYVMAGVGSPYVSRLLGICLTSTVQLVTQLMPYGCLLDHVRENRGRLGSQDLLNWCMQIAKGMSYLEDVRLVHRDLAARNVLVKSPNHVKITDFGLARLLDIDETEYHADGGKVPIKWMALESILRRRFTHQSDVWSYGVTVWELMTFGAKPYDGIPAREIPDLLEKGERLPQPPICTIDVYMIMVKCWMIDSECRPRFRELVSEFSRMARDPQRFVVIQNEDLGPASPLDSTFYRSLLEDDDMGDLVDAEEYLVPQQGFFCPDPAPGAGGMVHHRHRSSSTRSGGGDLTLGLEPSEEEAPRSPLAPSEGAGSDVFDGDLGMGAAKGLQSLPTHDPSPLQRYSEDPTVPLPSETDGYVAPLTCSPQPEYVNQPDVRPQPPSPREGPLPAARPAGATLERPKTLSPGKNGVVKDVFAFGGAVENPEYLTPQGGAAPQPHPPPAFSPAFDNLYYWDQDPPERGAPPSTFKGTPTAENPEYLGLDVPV

[16] = system: BT-474; test: Cell cycle arrest in human BT-474 cells assessed as down regulation of Rb expression at 1 to 10 nM incubated for 12 to 16 hrs by Western blot analysis; type: functional, cell-based; details: dose 1-10 nM, time 12-16 hrs
[17] = Toxicity in human SK-OV-3 cells xenografted athymic nude mouse at 10 to 60 mg/kg, po administered daily via gavage for 20 days; type: organism-based; details: in vivo, 480 h, dose 10-60 mg/kg, time 20 day
[18] = system: BT-474; test: Cell cycle arrest in human BT-474 cells assessed as accumulation of cells at G0-G1 phase at 0.2 nM measured after 12 to 16 hrs by propidium iodide staining based flow cytometry (reference value: 61%); type: functional; details: time 12-16 hrs
[19] = system: SK-OV-3; test: Antitumor activity against human SK-OV-3 cells xenografted in athymic nude mouse assessed as tumor growth inhibition at 5 mg/kg, po administered daily for 20 days via gavage and measured on day 21 relative to control; type: functional; details: SK-OV-3, 504 h, time 21 day, read-out: TGI
[20] = Toxicity in human BT-474 cells xenografted athymic nude mouse at 10 to 40 mg/kg, po administered daily via gavage for 20 days; type: organism-based; details: in vivo, 480 h, dose 10-40 mg/kg, time 20 day
[21] = system: BT-474; test: Cell cycle arrest in human BT-474 cells assessed as accumulation of cells at S phase at 0.2 nM measured after 12 to 16 hrs by BrdUrd uptake assay (reference value: 26%); type: functional; details: time 12-16 hrs
[22] = target: T1, Receptor tyrosine-protein kinase erbB-2; test: Inhibition of HER2 autophosphorylation in human BT-474 cells at 1 uM measured after 3 hrs by Western blot analysis relative to control; type: cell-based
[23] = system: BT-474; test: Cell cycle arrest in human BT-474 cells assessed as accumulation of cells at G0-G1 phase at 0.4 nM measured after 12 to 16 hrs by propidium iodide staining based flow cytometry (reference value: 61%); type: functional; details: time 12-16 hrs
[24] = system: BT-474; test: Cell cycle arrest in human BT-474 cells assessed as accumulation of cells at G2/M phase at 0.2 nM measured after 12 to 16 hrs by propidium iodide staining based flow cytometry (reference value: 11%); type: functional; details: time 12-16 hrs
[25] = system: MDA-MB-361; test: Antiproliferative activity against human MDA-MB-361 cells measured after 2 days by sulforhodamine B assay; type: functional, cell-based; details: MDA-MB-361, 48 h
[26] = system: SK-OV-3; test: Antitumor activity against human SK-OV-3 cells xenografted in athymic nude mouse assessed as tumor growth inhibition at 60 mg/kg, po administered daily for 20 days via gavage and measured on day 21 relative to control; type: functional; details: SK-OV-3, 504 h, time 21 day, read-out: TGI
[27] = target: Epidermal growth factor receptor (Homo sapiens, UniProt P00533); test: Inhibition of EGF-induced EGFR phosphorylation in human A-431 cells at 1 uM incubated for 3 hrs by Western blot analysis relative to control; type: cell-based
Chain of Epidermal growth factor receptor (P00533 whole entry): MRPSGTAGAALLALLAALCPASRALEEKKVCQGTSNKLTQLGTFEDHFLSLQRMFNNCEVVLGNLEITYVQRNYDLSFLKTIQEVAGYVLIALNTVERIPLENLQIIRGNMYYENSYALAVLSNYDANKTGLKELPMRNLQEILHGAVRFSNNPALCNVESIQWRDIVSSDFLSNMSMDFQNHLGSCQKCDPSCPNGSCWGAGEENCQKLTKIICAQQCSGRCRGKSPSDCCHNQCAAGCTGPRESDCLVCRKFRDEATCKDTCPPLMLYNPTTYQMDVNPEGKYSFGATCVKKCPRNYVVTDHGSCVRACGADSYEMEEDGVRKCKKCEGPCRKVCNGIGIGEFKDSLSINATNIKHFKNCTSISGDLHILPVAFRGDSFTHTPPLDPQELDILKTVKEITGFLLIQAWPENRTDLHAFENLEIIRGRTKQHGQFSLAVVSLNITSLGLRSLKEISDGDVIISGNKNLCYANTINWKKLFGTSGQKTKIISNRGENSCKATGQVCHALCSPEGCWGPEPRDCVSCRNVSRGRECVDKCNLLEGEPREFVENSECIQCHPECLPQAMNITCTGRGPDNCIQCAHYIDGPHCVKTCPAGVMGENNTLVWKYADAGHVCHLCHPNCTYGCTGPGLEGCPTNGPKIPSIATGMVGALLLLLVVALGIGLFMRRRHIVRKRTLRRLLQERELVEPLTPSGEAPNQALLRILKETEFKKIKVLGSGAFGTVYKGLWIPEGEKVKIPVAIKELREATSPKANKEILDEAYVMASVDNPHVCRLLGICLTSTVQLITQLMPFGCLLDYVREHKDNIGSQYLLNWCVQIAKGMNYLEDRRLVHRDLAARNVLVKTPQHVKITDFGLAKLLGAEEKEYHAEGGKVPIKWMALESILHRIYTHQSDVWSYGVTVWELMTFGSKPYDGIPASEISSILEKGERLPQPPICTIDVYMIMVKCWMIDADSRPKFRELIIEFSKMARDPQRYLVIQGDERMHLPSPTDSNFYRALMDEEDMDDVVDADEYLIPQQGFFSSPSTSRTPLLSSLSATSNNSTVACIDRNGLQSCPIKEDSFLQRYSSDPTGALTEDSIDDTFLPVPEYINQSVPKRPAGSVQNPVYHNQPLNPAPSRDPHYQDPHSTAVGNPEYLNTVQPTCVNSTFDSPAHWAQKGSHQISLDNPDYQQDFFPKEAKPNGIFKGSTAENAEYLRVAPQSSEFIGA

[28] = system: A-431; test: Antitumor activity against human A-431 cells xenografted in athymic nude mouse assessed as tumor growth inhibition at 60 mg/kg, po administered daily for 10 days via gavage and measured on day 15 relative to control; type: functional; details: A-431, 360 h, time 15 day, read-out: TGI
[29] = system: BT-474; test: Cell cycle arrest in human BT-474 cells assessed as accumulation of cells at G2/M phase at 0.4 nM measured after 12 to 16 hrs by propidium iodide staining based flow cytometry (reference value: 11%); type: functional; details: time 12-16 hrs
[30] = system: MDA-MB-435; test: Antiproliferative activity against human MDA-MB-435 cells measured after 2 days by sulforhodamine B assay; type: functional, cell-based; details: MDA-MB-435, 48 h
[31] = system: BT-474; test: Cell cycle arrest in human BT-474 cells assessed as accumulation of cells at Sub-G1 phase at 0.4 nM measured after 12 to 16 hrs by propidium iodide staining based flow cytometry (reference value: 8%); type: functional; details: time 12-16 hrs
[32] = system: NIH3T3; test: Antitumor activity against mouse 3T3 cells transfected with HER-2 oncogene implanted in athymic nude mouse assessed as tumor growth inhibition at 80 mg/kg, po administered daily for 10 days via gavage and measured on day 21 relative to control; type: functional; details: NIH3T3, 504 h, time 21 day, read-out: TGI

- IC50 [2]: > 18 µM
- IC50 [3]: > 50 µM
- IC50 [5]: > 18 µM
- IC50 [11]: 0.009 µM
- IC50 [12]: > 18 µM
- inhibition [15]: 97%
- inhibition [22]: 98%
- IC50 [25]: 0.19 µM
- inhibition [27]: > 99%
- IC50 [30]: 0.96 µM
SMILES: COc1cc2ncc(C#N)c(Nc3ccc(OCc4ccccn4)c(Cl)c3)c2cc1NC(=O)/C=C/CN(C)C
- inhibition in vivo at 5 mg/kg [1]: 70%
- Activity [4]: Non-Toxic
- inhibition in vivo at 40 mg/kg [6]: 93%
- inhibition in vivo at 40 mg/kg [7]: 84%
- Activity [8]: 10%
- Activity [9]: Active
- TGI [10]: Dose-Dependent Effect
- IC50 at 2 days [13]: 0.7 µM
- Ratio IC50 [14]: 14
- Activity [16]: Active
- Activity [17]: Non-Toxic
- Activity [18]: 63%
- inhibition in vivo at 5 mg/kg [19]: 31%
- Activity [20]: Non-Toxic
- Activity [21]: 18%
- Activity [23]: 65%
- Activity [24]: 13%
- inhibition in vivo at 60 mg/kg [26]: 85%
- inhibition in vivo at 60 mg/kg [28]: 76%
- Activity [29]: 13%
- Activity [31]: 11%
- inhibition in vivo at 80 mg/kg [32]: 98%
